Measured values published in PMC9297976 (Journal of Applied Toxicology, 2021).

What was measured:
[1] = molecular target: T1, medaka Esr1 (mEsr1) (Oryzias latipes, UniProt P50241); assay: cell-based; parameters: species or system Japanese medaka (Oryzias latipes)
T1 sequence (P50241 1-620): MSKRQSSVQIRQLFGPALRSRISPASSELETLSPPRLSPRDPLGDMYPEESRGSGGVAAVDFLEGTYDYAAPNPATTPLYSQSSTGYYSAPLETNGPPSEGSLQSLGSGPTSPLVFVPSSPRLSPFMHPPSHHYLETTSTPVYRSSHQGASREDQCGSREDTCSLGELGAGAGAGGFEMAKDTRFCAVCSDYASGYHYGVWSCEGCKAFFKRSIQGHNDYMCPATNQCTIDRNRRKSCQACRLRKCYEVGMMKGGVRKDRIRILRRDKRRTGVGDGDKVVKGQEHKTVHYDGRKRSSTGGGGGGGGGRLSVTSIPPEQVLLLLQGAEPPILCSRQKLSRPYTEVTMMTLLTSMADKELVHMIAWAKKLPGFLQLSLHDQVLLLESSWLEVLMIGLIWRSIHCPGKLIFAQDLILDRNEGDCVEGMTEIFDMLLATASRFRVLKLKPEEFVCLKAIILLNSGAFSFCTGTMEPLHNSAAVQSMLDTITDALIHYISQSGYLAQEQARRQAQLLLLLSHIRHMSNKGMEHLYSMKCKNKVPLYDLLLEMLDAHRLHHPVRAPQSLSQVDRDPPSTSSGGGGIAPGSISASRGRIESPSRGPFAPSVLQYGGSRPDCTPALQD

[2] = system: Japanese medaka (Oryzias latipes); assay: Fish Short‐Term Reproduction Assay; type: in vivo; settings: for GSI Female / GSI Male / HSI Female / HSI Male / Length Female / Length Male / Weight Female / Weight Male: completion of exposure
[3] = molecular target: T1, medaka Esr1 (mEsr1); assay: Medaka Esr1 reporter gene assay, antagonist assay; type: cell-based, Japanese medaka (Oryzias latipes); settings: E2 spiked at 1.0 nM (B); MAC = 1.0 × 10^−5 M
[4] = molecular target: T2, medaka ARβ (mArβ) (Oryzias latipes, UniProt D1MV73); assay: Medaka ARβ reporter gene assay, antagonist assay; type: cell-based, Japanese medaka (Oryzias latipes); settings: 11‐KT spiked at 50 nM (D); MAC = 1.0 × 10^−5 M
T2 sequence (D1MV73 1-744): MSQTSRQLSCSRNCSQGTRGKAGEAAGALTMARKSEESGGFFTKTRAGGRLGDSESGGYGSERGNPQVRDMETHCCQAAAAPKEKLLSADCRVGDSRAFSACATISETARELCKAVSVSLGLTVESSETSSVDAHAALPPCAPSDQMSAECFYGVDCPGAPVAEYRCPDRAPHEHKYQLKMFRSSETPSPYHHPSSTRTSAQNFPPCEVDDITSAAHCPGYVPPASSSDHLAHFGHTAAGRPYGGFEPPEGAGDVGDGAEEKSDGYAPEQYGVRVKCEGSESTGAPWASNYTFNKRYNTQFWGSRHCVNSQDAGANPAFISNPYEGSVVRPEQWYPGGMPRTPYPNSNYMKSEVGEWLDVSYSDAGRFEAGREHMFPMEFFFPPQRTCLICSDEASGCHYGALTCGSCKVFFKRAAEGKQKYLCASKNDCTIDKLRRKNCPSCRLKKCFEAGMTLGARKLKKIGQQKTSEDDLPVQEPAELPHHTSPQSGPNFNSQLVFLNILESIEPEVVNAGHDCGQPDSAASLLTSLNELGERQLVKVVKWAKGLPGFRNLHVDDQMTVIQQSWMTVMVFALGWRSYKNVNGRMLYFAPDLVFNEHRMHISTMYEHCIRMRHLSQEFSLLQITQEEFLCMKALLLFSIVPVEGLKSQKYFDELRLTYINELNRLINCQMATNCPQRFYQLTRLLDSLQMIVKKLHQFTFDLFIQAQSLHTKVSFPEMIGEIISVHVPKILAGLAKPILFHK

[5] = molecular target: T2, medaka ARβ (mArβ); assay: Medaka ARβ reporter gene assay, agonist assay; type: cell-based, Japanese medaka (Oryzias latipes); settings: MAC = 1.0 × 10^−5 M
[6] = 18.8 μg/L measured, 21 d, sig. ↑ vs control
[7] = 51.8 μg/L measured, 21 d, sig. ↑ vs control
[8] = 51.8 μg/L measured, 21 d, sig. ↓ vs control
[9] = 170 μg/L measured, 21 d, sig. ↑ vs control
[10] = measured concentration 5.63 μg/L
[11] = measured concentration 18.8 μg/L
[12] = measured concentration 51.8 μg/L
[13] = measured concentration 170 μg/L

4‐Nonylphenol (branched) [Chemical 4NP]
In vitro positive: Esr ([1]; mode of action in which EC50 or PC10 was obtained in RGA): Esr
EC50 ([1]; read-out: Agonistic activity EC50, HEK293 cells): 0.022 µM
Fertility rate ([2]; 5.63 μg/L measured, 21 d): 97 ± 2.2%
Hepatic VTG, female ([2]; 5.63 μg/L measured, 21 d): 866 ± 277 ng/mg‐liver
Mortality ([2]; 5.63 μg/L measured, 21 d): 0.0%
Mortality, number of dead fish ([2]; 5.63 μg/L measured, 21 d): 0
Number of fertilized eggs (per female per day) ([2]; 5.63 μg/L measured, 21 d): 20 ± 1.2
Number of total eggs (per female per day) ([2]; 5.63 μg/L measured, 21 d): 21 ± 0.9
SSC female (joint plates with papillary processes) ([2]; 5.63 μg/L measured, 21 d): 0 ± 0
SSC male (joint plates with papillary processes) ([2]; 5.63 μg/L measured, 21 d): 92 ± 15
Hepatic VTG, male ([2]; 5.63 μg/L measured, 21 d, sig. ↑ vs control): 32 ± 31 ng/mg‐liver
Fertility rate ([2]; 18.8 μg/L measured, 21 d): 94 ± 7.7%
Mortality ([2]; 18.8 μg/L measured, 21 d): 0.0%
Mortality, number of dead fish ([2]; 18.8 μg/L measured, 21 d): 0
Number of fertilized eggs (per female per day) ([2]; 18.8 μg/L measured, 21 d): 17 ± 5.4
Number of total eggs (per female per day) ([2]; 18.8 μg/L measured, 21 d): 18 ± 4.9
SSC female (joint plates with papillary processes) ([2]; 18.8 μg/L measured, 21 d): 0 ± 0
SSC male (joint plates with papillary processes) ([2]; 18.8 μg/L measured, 21 d): 79 ± 21
Hepatic VTG, female [2, 6]: 1,153 ± 300 ng/mg‐liver
Hepatic VTG, male [2, 6]: 375 ± 320 ng/mg‐liver
Mortality ([2]; 51.8 μg/L measured, 21 d): 0.0%
Mortality, number of dead fish ([2]; 51.8 μg/L measured, 21 d): 0
SSC female (joint plates with papillary processes) ([2]; 51.8 μg/L measured, 21 d): 0 ± 0
SSC male (joint plates with papillary processes) ([2]; 51.8 μg/L measured, 21 d): 97 ± 13
Hepatic VTG, female [2, 7]: 1,348 ± 258 ng/mg‐liver
Hepatic VTG, male [2, 7]: 2,431 ± 1,455 ng/mg‐liver
Fertility rate [2, 8]: 61 ± 10%
Number of total eggs (per female per day) [2, 8]: 13 ± 3.0
Mortality ([2]; 170 μg/L measured, 21 d): 4.2%
Mortality, number of dead fish ([2]; 170 μg/L measured, 21 d): 1
SSC female (joint plates with papillary processes) ([2]; 170 μg/L measured, 21 d): 0 ± 0
SSC male (joint plates with papillary processes) ([2]; 170 μg/L measured, 21 d): 87 ± 12
Hepatic VTG, female [2, 9]: 1,212 ± 506 ng/mg‐liver
Hepatic VTG, male [2, 9]: 5,009 ± 1830 ng/mg‐liver
Fertility rate ([2]; 170 μg/L measured, 21 d, sig. ↓ vs control): 33 ± 9.7%
Change of hepatic VTG levels in females (in words) ([2]; 21 d): significant increase
Fecundity, number of total eggs (in words) ([2]; 21 d): statistically significant decrease
LOEC, elevated hepatic VTG in males ([2]; 21 d): 5.63 µg/L
LOECmVTG ([2]; LOEC on VTG induction in males): 5.63 µg/L
LOECREPRO ([2]; LOEC on reproduction (fecundity and/or fertility)): 51.8 µg/L
LOECTOX ([2]; lowest observed effect concentration on mortality): ND (>170) μg/L
GSI Female [2, 10]: 7.8 ± 1.6%
GSI Male [2, 10]: 1.02 ± 0.07%
HSI Female [2, 10]: 3.4 ± 0.55%
HSI Male [2, 10]: 1.7 ± 0.10%
Length Female [2, 10]: 36.7 ± 1.3 mm
Length Male [2, 10]: 36.8 ± 1.3 mm
Weight Female [2, 10]: 535 ± 82 mg
Weight Male [2, 10]: 515 ± 45 mg
GSI Female [2, 11]: 8.9 ± 0.6%
GSI Male [2, 11]: 1.08 ± 0.06%
HSI Female [2, 11]: 4.1 ± 0.59%
HSI Male [2, 11]: 1.7 ± 0.28%
Length Female [2, 11]: 35.5 ± 1.2 mm
Length Male [2, 11]: 37.5 ± 0.6 mm
Weight Female [2, 11]: 500 ± 46 mg
Weight Male [2, 11]: 552 ± 34 mg
GSI Female [2, 12]: 7.7 ± 0.6%
GSI Male [2, 12]: 1.15 ± 0.20%
HSI Female [2, 12]: 4.2 ± 0.66%
HSI Male [2, 12]: 2.0 ± 0.22%
Length Female [2, 12]: 36.4 ± 0.8 mm
Length Male [2, 12]: 37.6 ± 1.2 mm
Weight Female [2, 12]: 537 ± 45 mg
Weight Male [2, 12]: 552 ± 69 mg
GSI Female [2, 13]: 7.9 ± 1.5%
GSI Male [2, 13]: 1.05 ± 0.15%
HSI Female [2, 13]: 3.9 ± 0.58%
HSI Male [2, 13]: 2.4 ± 0.10%
Length Female [2, 13]: 36.0 ± 1.6 mm
Length Male [2, 13]: 38.6 ± 1.5 mm
Weight Female [2, 13]: 540 ± 64 mg
Weight Male [2, 13]: 602 ± 64 mg
Antagonistic activity [3]: NE (MAC = 1.0 × 10^−5 M)^(B)
Antagonistic activity [4]: NE (MAC = 1.0 × 10^−5 M)^(D)
Agonistic activity [5]: NE (MAC = 1.0 × 10^−5 M)
